Assay results published in PMC4198181, “Gold(I) Complexes of 9-Deazahypoxanthine as Selective Antitumor and Anti-Inflammatory Agents” (PLoS ONE, 2014).

Legend:
[1] = tested on: A2780R ovarian carcinoma cells resistant to cisplatin; assay: MTT in vitro cytotoxicity, A2780R; assay type: cell-based, human; details: 24 h treatment, MTT; read-out: IC50±S.E., A2780R
Experimental: In vitro cytotoxic activity was determined by the MTT assay in human breast adenocarcinoma (MCF7; ECACC no. 86012803), human osteosarcoma (HOS; ECACC no. 87070202), lung carcinoma (A549; ECACC no. 86012804), malignant melanoma (G361; ECACC no. 88030401), cervix epitheloid carcinoma (HeLa; ECACC no. 93021013), ovarian carcinoma (A2780; ECACC no. 93112519), cisplatin-resistant ovarian carcinoma (A2780R; […] ECACC no 105092802) cancer cell lines, purchased from European Collection of Cell Cultures (ECACC). […] The primary culture of human hepatocytes (HEP220, batch number HEP220819) was obtained from Biopredic International (France). The culture medium was Williams and HAM's F-12 (1∶1) supplemented with penicillin, streptomycin, ascorbic acid, linoleic acid, holo-transferin, ethanolamine, glucagon, insulin, dexamethasone, pyruvate, glucose, glutamine, amphotericin. The medium was enriched for plating with 2% foetal calf serum (v/v). The medium was exchanged for a serum-free medium the day after and the culture was stabilized for additional 24 h. Thereafter, the cells were ready for treatments. […] The MTT assay was performed spectrophotometrically at 540 nm (TECAN, Schoeller Instruments LLC). The cytotoxicity data were expressed as the percentage of viability, where 100% represented the treatments with vehicle (0.1% DMF or 0.1% DMSO). The cytotoxicity data from the cancer cell lines were acquired from three independent experiments (conducted in triplicate) using cells from different passages. The IC50 values were calculated from viability curves. The results are presented as arithmetic means±standard error of the mean (S.E.).

TNF-α mRNA = assay: TNF-α gene expression by RT-qPCR in LPS-stimulated THP-1 macrophages; assay type: cell-based, human; details: 300 nM, 2 h after LPS, normalised to β-actin
Experimental: For the determination of biological activity, we used the human monocytic leukaemia cell line THP-1 (ECACC, Salisbury, UK). The cells were cultivated at 37°C in the RPMI 1640 medium supplemented with 2 mM L-glutamine, 10% FBS, 100 U/mL of penicillin and 100 µg/mL of streptomycin in a humidified atmosphere containing 5% CO2. Stabilized cells (3rd–15th passage) were split into microtitration plates to get a concentration of 500 000 cells/mL and the differentiation to macrophages was induced by phorbol myristate acetate (PMA) dissolved in dimethyl sulfoxide (DMSO) at the final concentration of 50 ng/ml, and the cells were incubated for 24 h. In comparison with monocytes, differentiated macrophages tend to adhere to the bottoms of the cultivation plates. For next 24 h the cells were incubated with a fresh complete RPMI medium, i.e. containing antibiotics and FBS, without PMA. The medium was then aspirated, and the cells were washed with PBS and cultivated for next 24 hours in serum-free RPMI 1640 medium. These prepared macrophages were used for the detection of inflammatory response.
In the order to evaluate the expression of TNF-α, IL-1β, and β-actin mRNA, total RNA was isolated directly from the LPS-stimulated THP-1 cells. THP-1 macrophages were pretreated with compounds 2, 5, and Auranofin at the concentration of 300 nM or the vehicle (0.1% DMSO) only. After 1 h of the incubation, the inflammatory response was induced by LPS [except for the control cells (CTRL)]. After 2 h of the incubation with LPS, the medium was aspirated and the total RNA was isolated directly from the cells in cultivation plates using a RealTime Ready Cell Lysis Kit (Roche), according to the manufacturer's instructions.
The gene expression was quantified by two-step reverse-transcription quantitative (real-time) PCR (RT-qPCR). The reverse transcription step was performed by Transcriptor Universal cDNA Master using cell lysate as a template. […] The results were normalized to the amount of ROX reference dye, and the change in gene expression was determined by the 2^−ΔΔCT method. […]

| Structure (SMILES) | IC50 [1] | effect on TNF-α mRNA transcription (TNF-α mRNA) |
| --- | --- | --- |
| CC(C)Oc1ncnc2cc[n]([Au])c12.c1ccc(P(c2ccccc2)c2ccccc2)cc1 [complex 2, [Au(L2)(PPh3)]] | 5.3 ± 0.4 µM | significantly reduce the transcription |
| [Au][n]1ccc2ncnc(OCCc3ccccc3)c21.c1ccc(P(c2ccccc2)c2ccccc2)cc1 [complex 5] | 5 ± 0.3 µM | significantly reduce the transcription |
